The source of these data is patent US20250235543A1, “MODIFIED PROTEINS AND PROTEIN DEGRADERS” (Cullgen (Shanghai), Inc., priority 2021, published 2025).

Molecules are shown by their SMILES. Bounds are passed on as bounds.

In one assay the test system is cyclin D1. Briefly: Cyclin D1 percentage degradation in Calu-1 cells (immunoblotting). The note with it: 200 nM, 16 hours. The format is cell-based. As to the method:
(§1) […] A: protein percentage degradation >=80%; B: protein percentage degradation <80%, and >=50%; C: protein percentage degradation <50%, and >=30%; D: protein percentage degradation <30%.
(§2) Cultured cells were washed with cold PBS once and lysed in cold RIPA buffer supplemented with protease inhibitors and phosphatase inhibitors (Beyotime Biotechnology). The solutions were then incubated at 4° C. for 30 min with gentle agitation to fully lysed cells. Cell lysates were centrifuged at 13,000 rpm for 10 min at 4° C. and pellets were discarded. Total protein concentrations in the lysates were determined following BCA assays (Beyotime Biotechnology). Cell lysates were mixed with Laemmli loading buffer and heated at 99° C. for 5 min. Proteins were resolved on SDS-PAGE and visualized using Western ECL Substrate kits on a ChemiDoc MP Imaging system (Bio-Rad). Protein bands were quantitated using the Image Lab software provided by Bio-Rad.
For orientation: In western blotting, separated proteins are transferred to a membrane and probed.

For the next assay, the target named is T1, CDK4 (Homo sapiens, UniProt P11802).
T1 construct: endogenous in cells; host or cells: Calu-1
The assay is described as follows: CDK4 percentage degradation in Calu-1 cells (immunoblotting). It is filed as cell-based. The note with it: Calu-1 cells, 200 nM, 16 hours; read-out: CDK4 Degradation (200 nM). As to the method: as §1, §2

T1 sequence (P11802 2-303 limits assumed): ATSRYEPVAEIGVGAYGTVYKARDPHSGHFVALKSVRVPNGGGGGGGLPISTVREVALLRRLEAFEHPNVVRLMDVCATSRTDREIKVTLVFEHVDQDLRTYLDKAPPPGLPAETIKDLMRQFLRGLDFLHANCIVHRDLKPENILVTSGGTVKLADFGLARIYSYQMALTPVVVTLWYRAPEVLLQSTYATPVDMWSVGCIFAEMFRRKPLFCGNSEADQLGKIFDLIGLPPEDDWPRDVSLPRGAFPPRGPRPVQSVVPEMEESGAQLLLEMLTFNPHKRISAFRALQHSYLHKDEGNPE
T1 sequence (P24385 whole entry partner): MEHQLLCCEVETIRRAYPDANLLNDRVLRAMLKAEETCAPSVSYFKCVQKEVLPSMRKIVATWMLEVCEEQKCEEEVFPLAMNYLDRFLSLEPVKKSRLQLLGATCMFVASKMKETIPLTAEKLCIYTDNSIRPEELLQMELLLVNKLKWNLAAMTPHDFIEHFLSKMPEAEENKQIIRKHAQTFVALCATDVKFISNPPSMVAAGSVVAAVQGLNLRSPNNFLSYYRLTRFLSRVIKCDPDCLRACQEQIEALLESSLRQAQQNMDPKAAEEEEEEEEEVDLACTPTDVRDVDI
T1 sequence (Q16531 2-1140 limits assumed, further chain): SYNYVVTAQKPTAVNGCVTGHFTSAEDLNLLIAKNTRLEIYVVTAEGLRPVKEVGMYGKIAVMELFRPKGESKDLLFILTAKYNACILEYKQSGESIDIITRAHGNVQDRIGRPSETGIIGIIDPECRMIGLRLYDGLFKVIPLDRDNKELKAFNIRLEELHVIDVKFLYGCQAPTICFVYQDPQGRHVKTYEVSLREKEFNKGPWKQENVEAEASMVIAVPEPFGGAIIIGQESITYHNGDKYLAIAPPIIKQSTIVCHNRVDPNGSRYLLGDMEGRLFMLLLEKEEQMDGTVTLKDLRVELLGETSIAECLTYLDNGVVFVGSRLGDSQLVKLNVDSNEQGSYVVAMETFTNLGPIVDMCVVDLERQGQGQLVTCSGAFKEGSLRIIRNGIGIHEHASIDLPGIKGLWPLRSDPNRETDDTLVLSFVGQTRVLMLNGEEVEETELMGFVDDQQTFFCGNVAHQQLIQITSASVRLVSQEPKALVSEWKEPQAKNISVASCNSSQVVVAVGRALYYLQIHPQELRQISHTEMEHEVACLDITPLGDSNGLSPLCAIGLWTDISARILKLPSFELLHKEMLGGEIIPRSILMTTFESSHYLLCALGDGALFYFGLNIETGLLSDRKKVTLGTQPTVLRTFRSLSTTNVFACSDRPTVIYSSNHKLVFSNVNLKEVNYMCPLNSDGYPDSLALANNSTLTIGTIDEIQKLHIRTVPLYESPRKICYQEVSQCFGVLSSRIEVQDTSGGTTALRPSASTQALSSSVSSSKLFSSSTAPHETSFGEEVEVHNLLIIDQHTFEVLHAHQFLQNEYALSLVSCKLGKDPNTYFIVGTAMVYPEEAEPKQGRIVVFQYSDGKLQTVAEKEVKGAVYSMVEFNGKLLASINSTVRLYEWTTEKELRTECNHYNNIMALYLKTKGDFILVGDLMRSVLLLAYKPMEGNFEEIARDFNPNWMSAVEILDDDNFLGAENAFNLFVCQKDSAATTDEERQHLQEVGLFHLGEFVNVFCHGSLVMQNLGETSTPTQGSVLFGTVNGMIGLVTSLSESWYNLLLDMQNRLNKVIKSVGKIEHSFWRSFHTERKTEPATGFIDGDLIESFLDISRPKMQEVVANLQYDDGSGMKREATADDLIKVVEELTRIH

As for `CC(=O)c1c(C)c2cnc(Nc3ccc(N4CCN(CC(=O)NCCOCCOCCOCCOCCOCCNc5ccc(C(=O)Nc6ncc(-c7ccccc7)s6)c(C)c5)CC4)cn3)nc2n(C2CCCC2)c1=O` [CPD-001, 4-((1-(4-(6-((6-Acetyl-8-cyclopentyl-5-methyl-7-oxo-7,8-dihydropyrido[2,3-d]pyrimidin-2-yl)amino)pyridin-3-yl)piperazin-1-yl)-2-oxo-6,9,12,15,18-pentaoxa-3-azaicosan-20-yl)amino)-2-methyl-N-(5-phenylthiazol-2-yl)benzamide], the “CyclinD1 Degradation (200 nM)” value in the assay on cyclin D1 was “D (protein percentage degradation <30%)”. Besides, the inhibition at 0.2 µM on CDK4 was below 30%.
In the case of `CC(=O)c1c(C)c2cnc(Nc3ccc(N4CCN(CC(=O)NCCOCCOCCOCCOCCOCCNc5ccc(C(=O)Nc6ncc(C(F)(F)F)s6)c(C)c5)CC4)cn3)nc2n(C2CCCC2)c1=O` [CPD-003, 4-((1-(4-(6-((6-Acetyl-8-cyclopentyl-5-methyl-7-oxo-7,8-dihydropyrido[2,3-d]pyrimidin-2-yl)amino)pyridin-3-yl)piperazin-1-yl)-2-oxo-6,9,12,15,18-pentaoxa-3-azaicosan-20-yl)amino)-2-methyl-N-(5-(trifluoromethyl)thiazol-2-yl)benzamide], the “CyclinD1 Degradation (200 nM)” value in the assay with cyclin D1 is “D (protein percentage degradation <30%)”. In addition, on CDK4, the inhibition at 0.2 µM is below 30%.
The like results for `CC(=O)c1c(C)c2cnc(Nc3ccc(N4CCN(CC(=O)NCCOCCOCCOCCOCCOCCNc5ccc(C(=O)Nc6ncc(Cl)s6)c(C)c5)CC4)cn3)nc2n(C2CCCC2)c1=O` [CPD-005, 4-((1-(4-(6-((6-Acetyl-8-cyclopentyl-5-methyl-7-oxo-7,8-dihydropyrido[2,3-d]pyrimidin-2-yl)amino)pyridin-3-yl)piperazin-1-yl)-2-oxo-6,9,12,15,18-pentaoxa-3-azaicosan-20-yl)amino)-N-(5-chlorothiazol-2-yl)-2-methylbenzamide] were, in that order, “D (protein percentage degradation <30%)” and below 30%.
On to `CC(=O)c1c(C)c2cnc(Nc3ccc(N4CCN(CC(=O)NCCOCCOCCOCCOCCOCCNc5ccc(C(=O)Nc6ncc(C(C)C)s6)c(C)c5)CC4)cn3)nc2n(C2CCCC2)c1=O` [CPD-006, 4-((1-(4-(6-((6-Acetyl-8-cyclopentyl-5-methyl-7-oxo-7,8-dihydropyrido[2,3-d]pyrimidin-2-yl)amino)pyridin-3-yl)piperazin-1-yl)-2-oxo-6,9,12,15,18-pentaoxa-3-azaicosan-20-yl)amino)-N-(5-isopropylthiazol-2-yl)-2-methylbenzamide], for which the “CyclinD1 Degradation (200 nM)” value with cyclin D1 is listed as “D (protein percentage degradation <30%)”. The inhibition at 0.2 µM at CDK4 was below 30%.
With `CC(=O)c1c(C)c2cnc(Nc3ccc(N4CCN(CC(=O)NCCOCCOCCOCCOCCOCCNc5ccc(C(=O)Nc6nc(-c7ccccc7)cs6)c(C)c5)CC4)cn3)nc2n(C2CCCC2)c1=O` [CPD-007, 4-((1-(4-(6-((6-Acetyl-8-cyclopentyl-5-methyl-7-oxo-7,8-dihydropyrido[2,3-d]pyrimidin-2-yl)amino)pyridin-3-yl)piperazin-1-yl)-2-oxo-6,9,12,15,18-pentaoxa-3-azaicosan-20-yl)amino)-2-methyl-N-(4-phenylthiazol-2-yl)benzamide], the “CyclinD1 Degradation (200 nM)” value with cyclin D1 is reported as “D (protein percentage degradation <30%)”. Further, on CDK4, the inhibition at 0.2 µM was below 30%.
As for `CC(=O)c1c(C)c2cnc(Nc3ccc(N4CCN(CC(=O)NCCOCCOCCOCCOCCOCCNC(=O)c5ccc(C(=O)Nc6ncc(C)s6)c(C)c5)CC4)cn3)nc2n(C2CCCC2)c1=O` [CPD-008, N^4-(1-(4-(6-((6-Acetyl-8-cyclopentyl-5-methyl-7-oxo-7,8-dihydropyrido[2,3-d]pyrimidin-2-yl)amino)pyridin-3-yl)piperazin-1-yl)-2-oxo-6,9,12,15,18-pentaoxa-3-azaicosan-20-yl)-2-methyl-N^1-(5-methylthiazol-2-yl)terephthalamide], in the assay on cyclin D1, the “CyclinD1 Degradation (200 nM)” value is reported as “D (protein percentage degradation <30%)”. Further, the inhibition at 0.2 µM at CDK4 was below 30%.
`CC(=O)c1c(C)c2cnc(Nc3ccc(N4CCN(CC(=O)NCCCCCNC(=O)c5ccc(C(=O)Nc6ncc(C)s6)c(C)c5)CC4)cn3)nc2n(C2CCCC2)c1=O` [CPD-009, N^4-(5-(2-(4-(6-((6-Acetyl-8-cyclopentyl-5-methyl-7-oxo-7,8-dihydropyrido[2,3-d]pyrimidin-2-yl)amino)pyridin-3-yl)piperazin-1-yl)acetamido)pentyl)-2-methyl-N^1-(5-methylthiazol-2-yl)terephthalamide]: the “CyclinD1 Degradation (200 nM)” value in the assay on cyclin D1 is “D (protein percentage degradation <30%)”. Besides, the inhibition at 0.2 µM at CDK4 was below 30%.
The like results for `CC(=O)c1c(C)c2cnc(Nc3ccc(N4CCN(CC(=O)NCCOCCOCCNC(=O)c5ccc(C(=O)Nc6ncc(C)s6)c(C)c5)CC4)cn3)nc2n(C2CCCC2)c1=O` [CPD-010, N^4-(2-(2-(2-(2-(4-(6-((6-Acetyl-8-cyclopentyl-5-methyl-7-oxo-7,8-dihydropyrido[2,3-d]pyrimidin-2-yl)amino)pyridin-3-yl)piperazin-1-yl)acetamido)ethoxy)ethoxy)ethyl)-2-methyl-N^1-(5-methylthiazol-2-yl)terephthalamide] were, in that order, “D (protein percentage degradation <30%)” and below 30%.
As for `CC(=O)c1c(C)c2cnc(Nc3ccc(N4CCN(CC(=O)NCCOCCOCCOCCNC(=O)c5ccc(C(=O)Nc6ncc(C)s6)c(C)c5)CC4)cn3)nc2n(C2CCCC2)c1=O` [CPD-011, N^4-(1-(4-(6-((6-Acetyl-8-cyclopentyl-5-methyl-7-oxo-7,8-dihydropyrido[2,3-d]pyrimidin-2-yl)amino)pyridin-3-yl)piperazin-1-yl)-2-oxo-6,9,12-trioxa-3-azatetradecan-14-yl)-2-methyl-N^1-(5-methylthiazol-2-yl)terephthalamide], the “CyclinD1 Degradation (200 nM)” value with cyclin D1 is listed as “D (protein percentage degradation <30%)”. Also, the inhibition at 0.2 µM on CDK4 is below 30%.
Turning to `CC(=O)c1c(C)c2cnc(Nc3ccc(N4CCN(CC(=O)NCCOCCOCCOCCOCCNC(=O)c5ccc(C(=O)Nc6ncc(C)s6)c(C)c5)CC4)cn3)nc2n(C2CCCC2)c1=O` [CPD-012, N^4-(1-(4-(6-((6-Acetyl-8-cyclopentyl-5-methyl-7-oxo-7,8-dihydropyrido[2,3-d]pyrimidin-2-yl)amino)pyridin-3-yl)piperazin-1-yl)-2-oxo-6,9,12,15-tetraoxa-3-azaheptadecan-17-yl)-2-methyl-N^1-(5-methylthiazol-2-yl)terephthalamide], the “CyclinD1 Degradation (200 nM)” value with cyclin D1 is “D (protein percentage degradation <30%)”. For the same compound, on CDK4, the inhibition at 0.2 µM was below 30%.
Regarding `CC(=O)c1c(C)c2cnc(Nc3ccc(N4CCN(CC(=O)NCCOCCOCCOCCOCCNC(=O)CNc5ccc(C(=O)Nc6ncc(C)s6)c(C)c5)CC4)cn3)nc2n(C2CCCC2)c1=O` [CPD-013, 4-((20-(4-(6-((6-Acetyl-8-cyclopentyl-5-methyl-7-oxo-7,8-dihydropyrido[2,3-d]pyrimidin-2-yl)amino)pyridin-3-yl)piperazin-1-yl)-2,19-dioxo-6,9,12,15-tetraoxa-3,18-diazaicosyl)amino)-2-methyl-N-(5-methylthiazol-2-yl)benzamide], in the assay with cyclin D1, the “CyclinD1 Degradation (200 nM)” value is given as “D (protein percentage degradation <30%)”. The inhibition at 0.2 µM on CDK4 was below 30%.
Turning to `CC(=O)c1c(C)c2cnc(Nc3ccc(N4CCN(CC(=O)NCCOCCOCCOCCOCCOCCNC(=O)CNc5ccc(C(=O)Nc6ncc(C)s6)c(C)c5)CC4)cn3)nc2n(C2CCCC2)c1=O` [CPD-014, 4-((23-(4-(6-((6-Acetyl-8-cyclopentyl-5-methyl-7-oxo-7,8-dihydropyrido[2,3-d]pyrimidin-2-yl)amino)pyridin-3-yl)piperazin-1-yl)-2,22-dioxo-6,9,12,15,18-pentaoxa-3,21-diazatricosyl)amino)-2-methyl-N-(5-methylthiazol-2-yl)benzamide], in the assay with cyclin D1, the “CyclinD1 Degradation (200 nM)” value was “D (protein percentage degradation <30%)”. In addition, the inhibition at 0.2 µM on CDK4 is below 30%.
For the compound `CC(=O)c1c(C)c2cnc(Nc3ccc(N4CCN(CC(=O)NCCCCCNC(=O)CNc5ccc(C(=O)Nc6ncc(C)s6)c(C)c5)CC4)cn3)nc2n(C2CCCC2)c1=O` [CPD-015, 4-((2-((5-(2-(4-(6-((6-Acetyl-8-cyclopentyl-5-methyl-7-oxo-7,8-dihydropyrido[2,3-d]pyrimidin-2-yl)amino)pyridin-3-yl)piperazin-1-yl)acetamido)pentyl)amino)-2-oxoethyl)amino)-2-methyl-N-(5-methylthiazol-2-yl)benzamide], in the assay with cyclin D1, the “CyclinD1 Degradation (200 nM)” value is “D (protein percentage degradation <30%)”. Besides, on CDK4, the inhibition at 0.2 µM was below 30%.
The matching figures for `CC(=O)c1c(C)c2cnc(Nc3ccc(N4CCN(CC(=O)NCCCCCCCNC(=O)CNc5ccc(C(=O)Nc6ncc(C)s6)c(C)c5)CC4)cn3)nc2n(C2CCCC2)c1=O` [CPD-016, 4-((2-((7-(2-(4-(6-((6-Acetyl-8-cyclopentyl-5-methyl-7-oxo-7,8-dihydropyrido[2,3-d]pyrimidin-2-yl)amino)pyridin-3-yl)piperazin-1-yl)acetamido)heptyl)amino)-2-oxoethyl)amino)-2-methyl-N-(5-methylthiazol-2-yl)benzamide]: “D (protein percentage degradation <30%)” and below 30%.
